Measurements taken from BigSolDB 2.1.

For `CCc1cccc2c3c([nH]c12)C(CC)(CC(=O)O)OCC3` (stereo unspecified), the solubility (mole fraction) (in acetone, 278.15 K) was 0.0935, the solubility (mole fraction) (in acetone, 283.15 K) was 0.101 and the solubility (mole fraction) (in acetone, 288.15 K) was 0.109. The solubility (mole fraction) (in acetone, 293.15 K) was 0.117, the solubility (mole fraction) (in acetone, 298.15 K) was 0.127 and the solubility (mole fraction) (in acetone, 303.15 K) was 0.136. For the same compound, the solubility (mole fraction) (in acetone, 308.15 K) was 0.147, the solubility (mole fraction) (in acetone, 313.15 K) was 0.157 and the solubility (mole fraction) (in acetone, 318.15 K) was 0.168. It also gave a solubility (mole fraction) (in acetone, 323.15 K) of 0.178, a solubility (mole fraction) (in dichloromethane, 278.15 K) of 0.00979 and a solubility (mole fraction) (in dichloromethane, 283.15 K) of 0.0124. The solubility (mole fraction) (in dichloromethane, 288.15 K) was 0.0155, the solubility (mole fraction) (in dichloromethane, 293.15 K) was 0.019 and the solubility (mole fraction) (in dichloromethane, 298.15 K) was 0.0229. The solubility (mole fraction) (in dichloromethane, 303.15 K) was 0.0271, the solubility (mole fraction) (in isobutanol, 278.15 K) was 0.0224 and the solubility (mole fraction) (in isobutanol, 283.15 K) was 0.0265. It also gave a solubility (mole fraction) (in isobutanol, 288.15 K) of 0.0316, a solubility (mole fraction) (in isobutanol, 293.15 K) of 0.0382 and a solubility (mole fraction) (in isobutanol, 298.15 K) of 0.0476. The solubility (mole fraction) (in isobutanol, 303.15 K) was 0.0594, the solubility (mole fraction) (in isobutanol, 308.15 K) was 0.0707 and the solubility (mole fraction) (in isobutanol, 313.15 K) was 0.086. It also gave a solubility (mole fraction) (in isobutanol, 318.15 K) of 0.104, a solubility (mole fraction) (in isobutanol, 323.15 K) of 0.123 and a solubility (mole fraction) (in isobutyl acetate, 278.15 K) of 0.0428. The solubility (mole fraction) (in isobutyl acetate, 283.15 K) was 0.0475, the solubility (mole fraction) (in isobutyl acetate, 288.15 K) was 0.0529 and the solubility (mole fraction) (in isobutyl acetate, 293.15 K) was 0.0584. It also gave a solubility (mole fraction) (in isobutyl acetate, 298.15 K) of 0.0649, a solubility (mole fraction) (in isobutyl acetate, 303.15 K) of 0.07 and a solubility (mole fraction) (in isobutyl acetate, 308.15 K) of 0.0774. For the same compound, the solubility (mole fraction) (in isobutyl acetate, 313.15 K) was 0.0861, the solubility (mole fraction) (in isobutyl acetate, 318.15 K) was 0.0959 and the solubility (mole fraction) (in isobutyl acetate, 323.15 K) was 0.108. For the same compound, the solubility (mole fraction) (in isopentyl acetate, 278.15 K) was 0.0413, the solubility (mole fraction) (in isopentyl acetate, 283.15 K) was 0.0457 and the solubility (mole fraction) (in isopentyl acetate, 288.15 K) was 0.0509. For the same compound, the solubility (mole fraction) (in isopentyl acetate, 293.15 K) was 0.0563, the solubility (mole fraction) (in isopentyl acetate, 298.15 K) was 0.0629 and the solubility (mole fraction) (in isopentyl acetate, 303.15 K) was 0.068. The solubility (mole fraction) (in isopentyl acetate, 308.15 K) was 0.0758, the solubility (mole fraction) (in isopentyl acetate, 313.15 K) was 0.084 and the solubility (mole fraction) (in isopentyl acetate, 318.15 K) was 0.0944. It also gave a solubility (mole fraction) (in isopentyl acetate, 323.15 K) of 0.105, a solubility (mole fraction) (in isopropanol, 278.15 K) of 0.0267 and a solubility (mole fraction) (in isopropanol, 283.15 K) of 0.0307. It also gave a solubility (mole fraction) (in isopropanol, 288.15 K) of 0.0363, a solubility (mole fraction) (in isopropanol, 293.15 K) of 0.0444 and a solubility (mole fraction) (in isopropanol, 298.15 K) of 0.0547. It also gave a solubility (mole fraction) (in isopropanol, 303.15 K) of 0.0669, a solubility (mole fraction) (in isopropanol, 308.15 K) of 0.078 and a solubility (mole fraction) (in isopropanol, 313.15 K) of 0.0907. For the same compound, the solubility (mole fraction) (in isopropanol, 318.15 K) was 0.109, the solubility (mole fraction) (in isopropanol, 323.15 K) was 0.127 and the solubility (mole fraction) (in methyl acetate, 278.15 K) was 0.0464. It also gave a solubility (mole fraction) (in methyl acetate, 283.15 K) of 0.0519, a solubility (mole fraction) (in methyl acetate, 288.15 K) of 0.0578 and a solubility (mole fraction) (in methyl acetate, 293.15 K) of 0.0638. The solubility (mole fraction) (in methyl acetate, 298.15 K) was 0.0687, the solubility (mole fraction) (in methyl acetate, 303.15 K) was 0.0769 and the solubility (mole fraction) (in methyl acetate, 308.15 K) was 0.0834. The solubility (mole fraction) (in methyl acetate, 313.15 K) was 0.0921, the solubility (mole fraction) (in methyl acetate, 318.15 K) was 0.101 and the solubility (mole fraction) (in methyl acetate, 323.15 K) was 0.111. For the same compound, the solubility (mole fraction) (in n-butanol, 278.15 K) was 0.0371, the solubility (mole fraction) (in n-butanol, 283.15 K) was 0.0422 and the solubility (mole fraction) (in n-butanol, 288.15 K) was 0.0485. The solubility (mole fraction) (in n-butanol, 293.15 K) was 0.0573, the solubility (mole fraction) (in n-butanol, 298.15 K) was 0.0675 and the solubility (mole fraction) (in n-butanol, 303.15 K) was 0.078. The solubility (mole fraction) (in n-butanol, 308.15 K) was 0.0873, the solubility (mole fraction) (in n-butanol, 313.15 K) was 0.0994 and the solubility (mole fraction) (in n-butanol, 318.15 K) was 0.117. It also gave a solubility (mole fraction) (in n-butanol, 323.15 K) of 0.135, a solubility (mole fraction) (in n-butyl acetate, 278.15 K) of 0.0455 and a solubility (mole fraction) (in n-butyl acetate, 283.15 K) of 0.0507. For the same compound, the solubility (mole fraction) (in n-butyl acetate, 288.15 K) was 0.0563, the solubility (mole fraction) (in n-butyl acetate, 293.15 K) was 0.0627 and the solubility (mole fraction) (in n-butyl acetate, 298.15 K) was 0.0682. The solubility (mole fraction) (in n-butyl acetate, 303.15 K) was 0.0748, the solubility (mole fraction) (in n-butyl acetate, 308.15 K) was 0.0825 and the solubility (mole fraction) (in n-butyl acetate, 313.15 K) was 0.0915. For the same compound, the solubility (mole fraction) (in n-butyl acetate, 318.15 K) was 0.101, the solubility (mole fraction) (in n-butyl acetate, 323.15 K) was 0.111 and the solubility (mole fraction) (in n-pentyl acetate, 278.15 K) was 0.0453. The solubility (mole fraction) (in n-pentyl acetate, 283.15 K) was 0.0503, the solubility (mole fraction) (in n-pentyl acetate, 288.15 K) was 0.0558 and the solubility (mole fraction) (in n-pentyl acetate, 293.15 K) was 0.0621. For the same compound, the solubility (mole fraction) (in n-pentyl acetate, 298.15 K) was 0.0666, the solubility (mole fraction) (in n-pentyl acetate, 303.15 K) was 0.0738 and the solubility (mole fraction) (in n-pentyl acetate, 308.15 K) was 0.0803. The solubility (mole fraction) (in n-pentyl acetate, 313.15 K) was 0.0892, the solubility (mole fraction) (in n-pentyl acetate, 318.15 K) was 0.0983 and the solubility (mole fraction) (in n-pentyl acetate, 323.15 K) was 0.108. The solubility (mole fraction) (in n-propanol, 278.15 K) was 0.0342, the solubility (mole fraction) (in n-propanol, 283.15 K) was 0.0391 and the solubility (mole fraction) (in n-propanol, 288.15 K) was 0.0452. The solubility (mole fraction) (in n-propanol, 293.15 K) was 0.0548, the solubility (mole fraction) (in n-propanol, 298.15 K) was 0.0648 and the solubility (mole fraction) (in n-propanol, 303.15 K) was 0.0751. The solubility (mole fraction) (in n-propanol, 308.15 K) was 0.0849, the solubility (mole fraction) (in n-propanol, 313.15 K) was 0.0969 and the solubility (mole fraction) (in n-propanol, 318.15 K) was 0.114. It also gave a solubility (mole fraction) (in n-propanol, 323.15 K) of 0.131, a solubility (mole fraction) (in toluene, 278.15 K) of 0.00117 and a solubility (mole fraction) (in toluene, 283.15 K) of 0.00147. It also gave a solubility (mole fraction) (in toluene, 288.15 K) of 0.0019, a solubility (mole fraction) (in toluene, 293.15 K) of 0.0024 and a solubility (mole fraction) (in toluene, 298.15 K) of 0.00316. For the same compound, the solubility (mole fraction) (in toluene, 303.15 K) was 0.00394, the solubility (mole fraction) (in toluene, 308.15 K) was 0.00501 and the solubility (mole fraction) (in toluene, 313.15 K) was 0.0065. The solubility (mole fraction) (in toluene, 318.15 K) was 0.00838 and the solubility (mole fraction) (in toluene, 323.15 K) was 0.0108.
